Measured values as given in patent publication US20260207654A1, “HEPARAN SULFATE AND ITS MIMETICS AS CHEMOKINE INHIBITORS” (INDIAN INSTITUTE OF SCIENCE EDUCATION AND RESEARCH, priority 2021, published 2026).

How the values were obtained:
[1] = biological target: T1, CCL5 (Homo sapiens, UniProt P13501); assay: Surface Plasmon Resonance (SPR) binding kinetics; settings: compound immobilized on CM5 chip, 25° C., 1:1 model
T1 sequence (P13501 24-91): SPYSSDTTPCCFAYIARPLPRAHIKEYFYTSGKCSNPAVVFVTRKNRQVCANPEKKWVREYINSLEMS
Method: (§1) FIG. 1: SPR analysis of chemokines binding profile for the compounds of present invention: SPR binding analysis of the interaction between the examples 12, 17, and 19, chemokines were reported, Concentrations of chemokines were 0.05-2 μM. A global fit according to a 1:1 binding model was applied (black curves).
(§2) Surface Plasmon Resonance (SPR) binding kinetics The compound of present invention (test compound, Example 12) was covalently immobilized on sensor chip via coupling reaction. At first, the dextran matrix on CM5 chip was activated with NHS (0.02 M) and EDC coupling reagent (0.2 M) at a flow rate of 5 μL min^−1 for 15 min before activating with 50 μL of test compound (0.5 mM) in HBS-EP buffer. In the negative control cell after EDC and NHS activation, 0.5 mM of ethanol amine solution was flowed. The positive RU response on test compound confirmed immobilization of the HS ligand on CM5 chips. Then, different chemokines at a flow rate of 50 μL/min and 25° C. in HBS-EP buffer without growth factor was then flowed over the sensor surface for 3 min to enable association/dissociation. Kinetic analysis was performed using the BIA evaluation software for T100. Association and dissociation phase data were globally fitted to a simple 1:1 interaction model.
(§3) Table 2: SPR analysis of kinetic rate constants and equilibrium affinities of compounds of present invention binding to chemokines
as §2, with “The” for “Surface Plasmon Resonance (SPR) binding kinetics The”, “12, 17 & 18)” for “12)”

[2] = biological target: T2, CXCL12 (Homo sapiens, UniProt P48061); assay: Surface Plasmon Resonance (SPR) binding kinetics; settings: compound immobilized on CM5 chip, 25° C., 1:1 model
Method: as §1, §2, §3
as §2, with “The” for “Surface Plasmon Resonance (SPR) binding kinetics The”, “12, 17 & 18)” for “12)”

[3] = biological target: T3, CXCL8 (Homo sapiens, UniProt P10145); assay: Surface Plasmon Resonance (SPR) binding kinetics; settings: compound immobilized on CM5 chip, 25° C., 1:1 model
T3 sequence (P10145 21-99): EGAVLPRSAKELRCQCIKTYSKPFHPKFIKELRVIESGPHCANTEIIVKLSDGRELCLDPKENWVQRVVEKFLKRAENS
Method: as §1, §2, §3
as §2, with “The” for “Surface Plasmon Resonance (SPR) binding kinetics The”, “12, 17 & 18)” for “12)”

[4] = biological target: T4, CCL2 (Homo sapiens, UniProt P13500); assay: Surface Plasmon Resonance (SPR) binding kinetics; settings: compound immobilized on CM5 chip, 25° C., 1:1 model
Method: as §1, §2, §3
as §2, with “The” for “Surface Plasmon Resonance (SPR) binding kinetics The”, “12, 17 & 18)” for “12)”

[5] = biological target: T5, CXCL10 (Homo sapiens, UniProt P02778); assay: Surface Plasmon Resonance (SPR) binding kinetics; settings: compound immobilized on CM5 chip, 25° C., 1:1 model
T5 sequence (P02778 22-98): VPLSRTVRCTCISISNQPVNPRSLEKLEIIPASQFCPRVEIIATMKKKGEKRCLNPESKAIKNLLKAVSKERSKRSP
Method: as §1, §2, §3
as §2, with “The” for “Surface Plasmon Resonance (SPR) binding kinetics The”, “12, 17 & 18)” for “12)”

[6] = biological target: T1, CCL5; assay: Chemokine glycan microarray binding assay; settings: maximum RFU set as 100% binding, average across 2 glycan concentrations and 3 chemokine dilutions (n=6)
How it was run: (§4)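 Epoxy-slide glycan array; block: PBS pH 7.3 + 1% ovalbumin, 1 h RT. Chemokine, 3 serial dilutions, 2 h RT; biotin-secondary Ab 1 μg/mL → Cy3-SA; fluorescence scan. Max RFU per block = 100%, others ranked; mean rank ± SEM over dilutions.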

[7] = biological target: T6, CCL21 (Homo sapiens, UniProt O00585); assay: Chemokine glycan microarray binding assay; settings: maximum RFU set as 100% binding, average across 2 glycan concentrations and 3 chemokine dilutions (n=6)
T6 sequence (O00585 24-134): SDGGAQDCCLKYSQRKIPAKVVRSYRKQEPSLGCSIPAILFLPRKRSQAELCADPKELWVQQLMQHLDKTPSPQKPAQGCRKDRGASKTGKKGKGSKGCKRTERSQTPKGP
How it was run: as §4

[8] = biological target: CCL13 (Homo sapiens, UniProt Q99616); assay: Chemokine glycan microarray binding assay; settings: maximum RFU set as 100% binding, average across 2 glycan concentrations and 3 chemokine dilutions (n=6)
How it was run: as §4

[9] = biological target: T7, CCL28 (Homo sapiens, UniProt Q9NRJ3); assay: Chemokine glycan microarray binding assay; settings: maximum RFU set as 100% binding, average across 2 glycan concentrations and 3 chemokine dilutions (n=6)
T7 sequence (Q9NRJ3 20-127): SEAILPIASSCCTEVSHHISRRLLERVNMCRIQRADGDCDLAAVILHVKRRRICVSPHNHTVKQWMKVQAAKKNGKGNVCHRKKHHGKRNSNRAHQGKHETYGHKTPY
How it was run: as §4

[10] = biological target: T2, CXCL12; assay: Chemokine glycan microarray binding assay; settings: maximum RFU set as 100% binding, average across 2 glycan concentrations and 3 chemokine dilutions (n=6)
How it was run: as §4

[11] = biological target: T3, CXCL8; assay: Chemokine glycan microarray binding assay; settings: maximum RFU set as 100% binding, average across 2 glycan concentrations and 3 chemokine dilutions (n=6)
How it was run: as §4

[12] = biological target: T8, CCL7 (Homo sapiens, UniProt P80098); assay: Chemokine glycan microarray binding assay; settings: maximum RFU set as 100% binding, average across 2 glycan concentrations and 3 chemokine dilutions (n=6)
How it was run: as §4

[13] = biological target: T4, CCL2; assay: Chemokine glycan microarray binding assay; settings: maximum RFU set as 100% binding, average across 2 glycan concentrations and 3 chemokine dilutions (n=6)
How it was run: as §4

[14] = biological target: T5, CXCL10; assay: Chemokine glycan microarray binding assay; settings: maximum RFU set as 100% binding, average across 2 glycan concentrations and 3 chemokine dilutions (n=6)
How it was run: as §4

[15] = biological target: T8, CCL7; assay: Surface Plasmon Resonance (SPR) binding kinetics; settings: compound immobilized on CM5 chip, 25° C., 1:1 model
Method: as §1, §2, §3
as §2, with “The” for “Surface Plasmon Resonance (SPR) binding kinetics The”, “12, 17 & 18)” for “12)”

Sequence of CCL13 (Q99616 17-98, species assumed): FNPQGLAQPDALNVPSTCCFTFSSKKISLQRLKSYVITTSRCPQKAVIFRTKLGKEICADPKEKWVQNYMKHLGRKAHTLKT
T2 sequence (P48061 22-93, species assumed): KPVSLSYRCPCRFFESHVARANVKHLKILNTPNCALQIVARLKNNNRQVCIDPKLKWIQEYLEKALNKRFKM
T4 sequence (P13500 24-99, species assumed): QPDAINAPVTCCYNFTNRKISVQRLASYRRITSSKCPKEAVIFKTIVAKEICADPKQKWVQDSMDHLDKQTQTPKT
T8 sequence (P80098 24-99, species assumed): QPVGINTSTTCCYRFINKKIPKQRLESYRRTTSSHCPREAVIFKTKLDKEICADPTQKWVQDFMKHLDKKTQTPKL

Koff [1] | Kon [1] | Kd [3] | Koff [3] | Kon [3] | Koff [4] | Kon [4] | Kd [5] | Koff [5] | Kon [5] | mean rank binding to CCL5 [6] | mean rank binding to CCL21 [7] | mean rank binding to CCL13 [8] | mean rank binding to CCL28 [9] | mean rank binding to CXCL12 [10] | mean rank binding to CXCL8 [11] | mean rank binding to CCL7 [12] | mean rank binding to CCL2 [13] | mean rank binding to CXCL10 [14] | SMILES | Kd [1] | other results
2.98 ± 0.31 × 10^−1 S^−1 | 4.37 ± 0.31 × 10^4 M^−1S^−1 | 11.7 ± 0.17 µM | 2.18 ± 0.28 × 10^−1 S^−1 | 1.87 ± 0.22 × 10^4 M^−1S^−1 | 2.11 ± 0.34 × 10^−1 S^−1 | 11.17 ± 0.32 × 10^4 M^−1S^−1 | 11 ± 0.37 µM | 1.69 ± 0.33 × 10^−1 S^−1 | 1.53 ± 0.26 × 10^4 M^−1S^−1 | 82% | 73% | 69% | 54% | 80% | 94% | 89% | 95% | 96% | NCCCO[C@@H]1O[C@@H](C(=O)O)[C@@H](O[C@H]2O[C@H](COS(=O)(=O)O)[C@@H](O[C@@H]3O[C@@H](C(=O)O)[C@@H](O[C@H]4O[C@H](COS(=O)(=O)O)[C@@H](O)[C@H](OS(=O)(=O)O)[C@H]4N)[C@H](O)[C@H]3O)[C@H](OS(=O)(=O)O)[C@H]2N)[C@H](O)[C@H]1O [Example 17, 3-Aminopropyl-O-[(2-amino-6-O-sulfonato-3-O-sulfonato-2-deoxy-α-D-glucopyranosyl)-(1→4)-O-(α-L-idopyranosyluronate)-(1→4)-O-(2-amino-6-O-sulfonato-3-O-sulfonato-2-deoxy-α-D-glucopyranosyl)]-(1→4)-O-α-L-idopyranosiduronate] | 6.81 ± 0.33 µM | Kd [15]: 11.3 ± 0.18 µM; Koff [15]: 2.86 ± 0.21 × 10^−1 S^−1; Kon [15]: 2.53 ± 0.15 × 10^4 M^−1S^−1
2.14 ± 0.48 × 10^−1 S^−1 | 9.15 ± 0.34 × 10^4 M^−1S^−1 | 15.9 ± 0.23 µM | 1.96 ± 0.29 × 10^−1 S^−1 | 1.23 ± 0.17 × 10^4 M^−1S^−1 | 2.03 ± 0.17 × 10^−1 S^−1 | 2.07 ± 0.13 × 10^4 M^−1S^−1 | 10.7 ± 0.37 µM | 2.24 ± 0.35 × 10^−1 S^−1 | 2.07 ± 0.26 × 10^4 M^−1S^−1 | 95% | 66% | 74% | 79% | 79% | 79% | 91% | 80% | 89% | NCCCO[C@@H]1OC(C(=O)O)[C@@H](O[C@H]2OC(COS(=O)(=O)O)[C@@H](O[C@@H]3OC(C(=O)O)[C@@H](O[C@H]4OC(COS(=O)(=O)O)[C@@H](O)C(O)C4N)C(O)C3OS(=O)(=O)O)C(O)C2N)C(O)C1OS(=O)(=O)O (stereo partly drawn) [Example 19, 3-Aminopropyl-O-[(2-amino-6-O-sulfonato-2-deoxy-α-D-glucopyranosyl)-(1→4)-O-(2-O-sulfonato-α-L-idopyranosyluronate)-(1→4)-O-(2-amino-6-O-sulfonato-2-deoxy-α-D-glucopyranosyl)]-(1→4)-O-2-O-sulfonato-α-L-idopyranosiduronate] | – | Kd [15]: 11.5 ± 0.17 µM; Koff [15]: 2.25 ± 0.29 × 10^−1 S^−1; Kon [15]: 1.96 ± 0.22 × 10^4 M^−1S^−1; Kd [4]: 9.82 ± 0.18 µM

SMILES | Koff [1] | Kon [1] | Kd [3] | Koff [3] | Kon [3] | Koff [4] | Kon [4] | Kd [5] | Koff [5] | Kon [5] | mean rank binding to CCL5 [6] | mean rank binding to CCL21 [7] | mean rank binding to CCL13 [8] | mean rank binding to CCL28 [9] | mean rank binding to CXCL12 [10] | mean rank binding to CXCL8 [11] | mean rank binding to CCL7 [12] | mean rank binding to CCL2 [13] | mean rank binding to CXCL10 [14] | Kd [1] | other results
NCCOCCO[C@@H]1O[C@@H](C(=O)O)[C@@H](O[C@@H]2O[C@@H](C(=O)O)[C@@H](O[C@@H]3O[C@@H](C(=O)O)[C@@H](O[C@@H]4O[C@@H](C(=O)O)[C@@H](OS(=O)(=O)O)[C@H](O)[C@H]4OS(=O)(=O)O)[C@H](O)[C@H]3OS(=O)(=O)O)[C@H](O)[C@H]2OS(=O)(=O)O)[C@H](O)[C@H]1OS(=O)(=O)O [Example 12, Ethoxy-2-aminoethoxyl-O-((2-4-O-disulfonato)-α-L-idopyranosyl Uronic Acid-α(1->4)(2-O-sulfonato)-α-L-idopyranosyl Uronic Acid-α(1→4)(2-O-sulfonato)-α-L-idopyranosyl Uronic Acid-α(1→4)(2-O-sulfonato))-α-L-idopyranoside Uronic Acid] | 2.4 ± 0.38 × 10^−1 S^−1 | 4.2 ± 0.46 × 10^4 M^−1S^−1 | 9.34 ± 0.21 µM | 2.96 ± 0.1 × 10^−1 S^−1 | 3.16 ± 0.08 × 10^5 M^−1S^−1 | 2.1 ± 0.5 × 10^−1 S^−1 | 1.26 ± 0.08 × 10^5 M^−1S^−1 | 15.3 ± 0.21 µM | 2.2 ± 0.38 × 10^−1 S^−1 | 1.44 ± 0.46 × 10^4 M^−1S^−1 | 91% | 50% | 70% | 72% | 91% | 96% | 80% | 88% | 87% | 5.72 ± 0.24 µM | Kd [2]: 18.8 ± 0.44 µM; Koff [2]: 2.1 ± 0.78 × 10^−1 S^−1; Kon [2]: 1.1 ± 0.46 × 10^4 M^−1S^−1; Kd [4]: 1.67 ± 0.3 µM
